ChEMBL document CHEMBL3627658, “Novel concept of enzyme selective nicotinamide adenine dinucleotide (NAD)-modified inhibitors based on enzyme taxonomy from the diphosphate conformation of NAD” (Bioorg Med Chem Lett, 2015)

Key:
[1] = Inhibition of yeast ADH by Michaelis constant analysis; parameters: species or system Saccharomyces cerevisiae
[2] = Inhibition of Thermoanaerobacter brockii ADH by Michaelis constant analysis
[3] = Inhibition of Leuconostoc mesenteroides D-LDH by Michaelis constant analysis
[4] = Inhibition of pig heart LDH by Michaelis constant analysis; parameters: species or system Sus scrofa
[5] = Inhibition of pig heart MDH by Michaelis constant analysis; parameters: species or system Sus scrofa
Gallus gallus = species on record: Gallus gallus; experiment: Inhibition of chicken liver NAD kinase assessed as residual activity relative to control

Compound | Ki [1] | Ki [2] | Ki [3] | Ki [4] | Ki [5] | Activity (Gallus gallus)
NC(=O)c1csc([C@@H]2O[C@H](COC(=O)[C@@H]3CCCC[C@H]3C(=O)OC[C@H]3O[C@@H](n4cnc5c(N)ncnc54)[C@H](O)[C@@H]3O)[C@@H](O)[C@H]2O)n1 | 0.62 mM | 0.71 mM | 10 mM | 0.8 mM | 0.7 mM | 81%
NC(=O)c1csc([C@@H]2O[C@H](COC(=O)[C@H]3CCCC[C@@H]3C(=O)OC[C@H]3O[C@@H](n4cnc5c(N)ncnc54)[C@H](O)[C@@H]3O)[C@@H](O)[C@H]2O)n1 | 2.6 mM | 7.1 mM | 24 mM | 3.9 mM | 3.3 mM | 60%
NC(=O)c1csc([C@@H]2O[C@H](COC(=O)CCC(=O)OC[C@H]3O[C@@H](n4cnc5c(N)ncnc54)[C@H](O)[C@@H]3O)[C@@H](O)[C@H]2O)n1 | 3.6 mM | 7.2 mM | 20 mM | 2.7 mM | 1.8 mM | 64%
